This passage reports IC50 results from ChEMBL document CHEMBL3217709, “SAR mining and its application to the design of TRPA1 antagonists” (Medchemcomm, 2012).

The target of experiment [1] is Transient receptor potential cation channel subfamily A member 1 (Homo sapiens, UniProt O75762). Kind of experiment: Antagonist activity at TRPA1 (unknown origin).
The next experiment has as its target T1, Adenosine receptor A2b (Homo sapiens, UniProt P29275).
T1 sequence (P29275 whole entry): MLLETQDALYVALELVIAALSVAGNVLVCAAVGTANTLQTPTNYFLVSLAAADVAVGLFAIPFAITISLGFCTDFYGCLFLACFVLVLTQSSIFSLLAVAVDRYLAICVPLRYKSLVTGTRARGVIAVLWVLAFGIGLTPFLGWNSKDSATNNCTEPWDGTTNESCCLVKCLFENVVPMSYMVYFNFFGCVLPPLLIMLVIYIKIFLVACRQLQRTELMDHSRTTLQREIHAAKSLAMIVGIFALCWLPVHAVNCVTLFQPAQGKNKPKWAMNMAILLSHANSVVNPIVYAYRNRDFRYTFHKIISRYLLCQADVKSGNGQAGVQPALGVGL
Nature of the experiment: Antagonist activity at adenosine A2B receptor (unknown origin).

The target in experiment [2] is 5-hydroxytryptamine receptor 4 (Homo sapiens, UniProt Q13639). Nature of the experiment: Antagonist activity at […] receptor (unknown origin).
Another experiment addresses Coagulation factor X (Homo sapiens, UniProt P00742). Kind of experiment: Inhibition of factor-10a (unknown origin).

Chain of Transient receptor potential cation channel subfamily A member 1 (O75762 whole entry): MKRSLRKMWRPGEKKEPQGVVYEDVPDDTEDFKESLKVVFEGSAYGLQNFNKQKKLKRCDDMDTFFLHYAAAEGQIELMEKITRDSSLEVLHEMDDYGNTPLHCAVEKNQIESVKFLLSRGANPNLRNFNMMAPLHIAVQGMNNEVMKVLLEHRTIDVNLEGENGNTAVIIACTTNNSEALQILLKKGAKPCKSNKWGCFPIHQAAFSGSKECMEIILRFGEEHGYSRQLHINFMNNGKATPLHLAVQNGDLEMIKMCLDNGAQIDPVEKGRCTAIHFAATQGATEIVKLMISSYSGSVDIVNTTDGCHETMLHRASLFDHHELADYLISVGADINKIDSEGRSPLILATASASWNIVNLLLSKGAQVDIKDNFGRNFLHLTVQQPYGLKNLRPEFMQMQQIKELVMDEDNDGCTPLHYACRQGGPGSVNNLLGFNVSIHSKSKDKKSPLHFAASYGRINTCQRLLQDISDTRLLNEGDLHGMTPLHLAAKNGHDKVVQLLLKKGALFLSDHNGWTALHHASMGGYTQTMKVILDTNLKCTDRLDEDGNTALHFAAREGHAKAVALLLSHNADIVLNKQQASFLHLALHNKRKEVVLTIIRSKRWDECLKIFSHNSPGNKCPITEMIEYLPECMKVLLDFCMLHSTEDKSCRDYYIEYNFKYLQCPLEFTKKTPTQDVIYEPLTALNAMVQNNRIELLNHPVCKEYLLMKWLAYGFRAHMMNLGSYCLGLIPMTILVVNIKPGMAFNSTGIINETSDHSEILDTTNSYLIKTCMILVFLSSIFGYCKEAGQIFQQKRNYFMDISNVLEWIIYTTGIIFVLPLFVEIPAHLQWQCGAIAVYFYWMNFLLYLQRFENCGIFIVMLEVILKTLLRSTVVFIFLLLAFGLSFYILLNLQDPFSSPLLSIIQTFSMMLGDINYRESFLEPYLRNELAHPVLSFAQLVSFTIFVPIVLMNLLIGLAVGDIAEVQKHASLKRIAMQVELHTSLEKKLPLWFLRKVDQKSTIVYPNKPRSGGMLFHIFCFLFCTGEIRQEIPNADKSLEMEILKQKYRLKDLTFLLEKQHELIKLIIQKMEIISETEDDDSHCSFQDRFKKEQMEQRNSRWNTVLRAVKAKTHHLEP
Chain of 5-hydroxytryptamine receptor 4 (Q13639 whole entry): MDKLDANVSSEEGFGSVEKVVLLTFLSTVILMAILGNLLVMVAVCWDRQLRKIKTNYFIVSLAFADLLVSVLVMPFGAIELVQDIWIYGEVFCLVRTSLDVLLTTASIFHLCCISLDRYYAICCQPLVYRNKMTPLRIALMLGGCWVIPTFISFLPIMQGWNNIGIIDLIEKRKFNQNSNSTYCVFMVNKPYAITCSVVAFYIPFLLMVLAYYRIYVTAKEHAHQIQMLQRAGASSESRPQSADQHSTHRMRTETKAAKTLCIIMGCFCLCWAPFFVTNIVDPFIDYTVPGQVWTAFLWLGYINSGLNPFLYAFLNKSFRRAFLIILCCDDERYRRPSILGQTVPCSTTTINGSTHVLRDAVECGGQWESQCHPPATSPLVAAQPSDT
Chain of Coagulation factor X (P00742 41-179 limits assumed): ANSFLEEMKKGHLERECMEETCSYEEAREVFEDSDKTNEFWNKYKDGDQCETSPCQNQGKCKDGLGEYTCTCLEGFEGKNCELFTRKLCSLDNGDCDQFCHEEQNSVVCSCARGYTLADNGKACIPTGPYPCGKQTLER
Chain of Coagulation factor X (P00742 235-488 limits assumed): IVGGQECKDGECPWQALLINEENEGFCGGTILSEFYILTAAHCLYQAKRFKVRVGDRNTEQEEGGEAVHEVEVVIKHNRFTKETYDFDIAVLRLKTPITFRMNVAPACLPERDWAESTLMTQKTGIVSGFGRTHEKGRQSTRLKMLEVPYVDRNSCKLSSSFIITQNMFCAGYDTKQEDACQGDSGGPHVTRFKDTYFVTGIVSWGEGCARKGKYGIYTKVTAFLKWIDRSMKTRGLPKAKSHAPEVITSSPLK

In general, IC50 refers to the concentration needed to halve the response being measured. High values mean lower potency, low ones higher potency. In turn, `Cc1c(=O)n(Cc2ccccc2)c(=O)n2cc(C(=O)NCc3ccccn3)sc12` returned an IC50 in experiment [1] of 3490 nM.

As to `COc1cc(N)c(Cl)cc1C(=O)OCCN1CCN(c2ccccc2F)CC1`, the IC50 against Adenosine receptor A2b was 645 nM; in experiment [2], 17 nM.

Turning to `COc1cc(N)c(Cl)cc1C(=O)OCCN1CCN(c2cccc(Cl)c2)CC1`, the IC50 at Adenosine receptor A2b was found to be 2080 nM; in experiment [2] it was 162 nM.

For `COc1cc(N)c(Cl)cc1C(=O)OCCN1CCN(c2ccc(Cl)cc2)CC1`, the values for the IC50 (at Adenosine receptor A2b; in experiment [2]) were 3660 nM and 715 nM, respectively.

Take `Cc1c(=O)n(Cc2ccccc2)c(=O)n2cc(C(=O)NCc3ccc(F)cc3)sc12`: the IC50 in experiment [1] worked out at 2230 nM.

With `COc1cc(N)c(Cl)cc1C(=O)OCCN1CCN(c2ccccc2Cl)CC1`, the values for the IC50 (at Adenosine receptor A2b; in experiment [2]) were 5830 nM and 296 nM, respectively.

In turn, `Cc1c(=O)n(Cc2ccccc2)c(=O)n2cc(C(=O)NCc3ccc4[nH]ccc4c3)sc12` registered an IC50 in experiment [1] of 680 nM.

In turn, `Cc1cc(C(=O)Nc2ccc(-c3ccccc3C(F)(F)F)cc2)n(-c2cccc(C(=N)N)c2)n1` yielded an IC50 at Coagulation factor X of 0.04 nM.

Molecule `Cc1c(=O)n(Cc2ccccc2)c(=O)n2cc(C(=O)N3CC[C@H](Oc4ccccc4C(F)(F)F)C3)sc12` had an IC50 in experiment [1] of 150 nM.

`Cc1c(=O)n(Cc2ccccc2)c(=O)n2cc(C(=O)N3CCC(Oc4ccccc4F)CC3)sc12` showed an IC50 in experiment [1] of 200 nM.

On to `COc1cc(CNC(=O)c2cn3c(=O)n(Cc4ccccc4)c(=O)c(C)c3s2)ccn1`, for which 1740 nM corresponded to half-maximal inhibition in experiment [1] (IC50).

`Cc1c(=O)n(Cc2ccccc2)c(=O)n2cc(C(=O)N3CCC(c4ccccc4F)CC3)sc12`: in experiment [1], 400 nM corresponded to half-maximal inhibition (IC50).

Take `COc1ccc(N2CCN(CCOC(=O)c3cc(Cl)c(N)cc3OC)CC2)cc1`: the IC50 is 250 nM on Adenosine receptor A2b and 18 nM in experiment [2].

For the molecule `Cc1c(=O)n(Cc2ccccc2)c(=O)n2cc(C(=O)N3CC[C@@H](Oc4ccccc4C(F)(F)F)C3)sc12`, in experiment [1], the IC50 is 100 nM.

`Cc1c(=O)n(Cc2ccccc2)c(=O)n2cc(C(=O)NCc3ccc4nsnc4c3)sc12` yielded an IC50 in experiment [1] of 1460 nM.

For the molecule `COc1cccc(N2CCN(CCOC(=O)c3cc(Cl)c(N)cc3OC)CC2)c1`, the figures for the IC50 (against Adenosine receptor A2b; in experiment [2]) were 50 nM and 3 nM, respectively.

Consider `Cc1c(=O)n(Cc2ccccc2)c(=O)n2cc(C(=O)NCc3ccncc3)sc12`, for which the IC50 in experiment [1] worked out at 1170 nM.

Regarding `Cc1c(=O)n(Cc2ccccc2)c(=O)n2cc(C(=O)N3CCC(Oc4cccc(Cl)c4)CC3)sc12`, it took 200 nM to reach half-maximal inhibition in experiment [1] (IC50).

As for `Cc1c(=O)n(Cc2ccccc2)c(=O)n2cc(C(=O)NCc3cccnc3)sc12`, the IC50 in experiment [1] is 1570 nM.

On to `Cc1c(=O)n(Cc2ccccc2)c(=O)n2cc(C(=O)NCc3ccccc3)sc12`, for which the IC50 in experiment [1] is 1880 nM.

The molecule `Cc1cc(C(=O)Nc2ccc(-c3ccccc3S(C)(=O)=O)cc2)n(-c2cccc(C(=N)N)c2)n1` gave an IC50 at Coagulation factor X of 0.008 nM.

With `Cc1ccc(CNC(=O)c2cn3c(=O)n(Cc4ccccc4)c(=O)c(C)c3s2)cc1`, the IC50 in experiment [1] is 1370 nM.

As to `COc1cc(N)c(Cl)cc1C(=O)OCCN1CCN(c2ccccc2-c2cnccn2)CC1`, the IC50 in experiment [2] was found to be 1.4 nM.

As to `COc1cc(N)c(Cl)cc1C(=O)OCCN1CCN(c2ccccc2OC)CC1`, the results for the IC50 (against Adenosine receptor A2b; in experiment [2]) were 127 nM and 64 nM, respectively.

In experiment [1], `Cc1c(=O)n(Cc2ccccc2)c(=O)n2cc(C(=O)NCc3ccc(Cl)cc3)sc12` returned an IC50 of 2230 nM.
